Experimental data: patent publication US12371428B2 (Exelixis, Inc., priority 2019, dated 2025)
Like-named read-outs stand apart in the source and are kept apart here.

Columns and labels:
Format in all cases: cell-based
[1] = target: KDR (phospho-KDR, VEGF165-stimulated HUVEC cells) (Homo sapiens (Human), UniProt P35968); test: KDR autophosphorylation ELISA in HUVEC cells (Example G); details: cellular activity; KDR autophosphorylation ELISA in HUVEC cells
How it was run: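 HUVEC cells, serum-starved 24 h, were treated 1 h with an 8-point compound dilution (0.3% DMSO) and then stimulated with 100 ng/mL VEGF165 for 5 min. Phospho-KDR in lysates was quantified by sandwich ELISA against a phospho-KDR standard. IC50 from a 4-parameter logistic fit, normalised between stimulated DMSO and unstimulated controls.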

[2] = target: Mer (phospho-Mer, MERTK-transfected 293A cells) (Homo sapiens (Human), UniProt Q12866); test: Mer autophosphorylation ELISA in transient transfected 293A cells (Example H); details: cellular activity; Mer autophosphorylation ELISA in transient transfected 293A cells
Mer (phospho-Mer, MERTK-transfected 293A cells), sequence (Q12866 21-999): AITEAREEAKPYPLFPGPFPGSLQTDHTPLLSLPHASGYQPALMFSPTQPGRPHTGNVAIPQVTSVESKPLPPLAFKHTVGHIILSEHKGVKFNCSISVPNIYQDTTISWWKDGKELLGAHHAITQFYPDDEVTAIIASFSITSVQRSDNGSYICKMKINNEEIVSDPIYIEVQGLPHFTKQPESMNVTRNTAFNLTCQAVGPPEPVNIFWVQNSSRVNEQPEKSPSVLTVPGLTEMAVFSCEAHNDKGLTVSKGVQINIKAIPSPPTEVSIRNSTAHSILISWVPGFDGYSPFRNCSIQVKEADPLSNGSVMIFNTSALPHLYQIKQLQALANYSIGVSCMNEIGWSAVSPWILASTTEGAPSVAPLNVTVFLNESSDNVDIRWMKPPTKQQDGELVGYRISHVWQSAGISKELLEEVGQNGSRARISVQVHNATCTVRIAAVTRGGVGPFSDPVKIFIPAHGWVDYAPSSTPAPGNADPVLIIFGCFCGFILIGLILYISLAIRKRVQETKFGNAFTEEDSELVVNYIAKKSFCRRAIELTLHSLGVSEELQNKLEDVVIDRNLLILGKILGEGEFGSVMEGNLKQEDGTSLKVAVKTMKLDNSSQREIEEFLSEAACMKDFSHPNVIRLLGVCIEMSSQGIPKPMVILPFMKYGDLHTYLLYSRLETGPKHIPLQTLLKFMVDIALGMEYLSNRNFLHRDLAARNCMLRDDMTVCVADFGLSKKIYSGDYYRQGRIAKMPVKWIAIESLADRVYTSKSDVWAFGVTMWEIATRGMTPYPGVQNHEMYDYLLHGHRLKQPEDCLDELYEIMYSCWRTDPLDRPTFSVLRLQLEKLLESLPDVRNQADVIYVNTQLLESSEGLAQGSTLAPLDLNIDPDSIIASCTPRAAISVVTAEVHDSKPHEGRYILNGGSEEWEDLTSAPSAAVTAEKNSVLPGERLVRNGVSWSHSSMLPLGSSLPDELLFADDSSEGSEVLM
How it was run: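 293A cells transiently transfected with human MERTK were treated 1 h in serum-free medium with an 8-point compound dilution (0.3% DMSO final). Lysates were assayed by phospho-Mer sandwich ELISA against a phospho-Mer standard; IC50 came from a 4-parameter logistic fit, normalised to DMSO (100%) and reference-inhibitor (0%) controls.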

[3] = target: Met (phospho-Met, HGF-stimulated PC-3 prostate cancer cells) (Homo sapiens (Human), UniProt P08581); test: Met autophosphorylation ELISA in PC-3 cells (Example F); details: cellular activity; Met autophosphorylation ELISA in PC-3 cells; read-out: c-Met IC50
Met (phospho-Met, HGF-stimulated PC-3 prostate cancer cells), sequence (P08581 25-1390): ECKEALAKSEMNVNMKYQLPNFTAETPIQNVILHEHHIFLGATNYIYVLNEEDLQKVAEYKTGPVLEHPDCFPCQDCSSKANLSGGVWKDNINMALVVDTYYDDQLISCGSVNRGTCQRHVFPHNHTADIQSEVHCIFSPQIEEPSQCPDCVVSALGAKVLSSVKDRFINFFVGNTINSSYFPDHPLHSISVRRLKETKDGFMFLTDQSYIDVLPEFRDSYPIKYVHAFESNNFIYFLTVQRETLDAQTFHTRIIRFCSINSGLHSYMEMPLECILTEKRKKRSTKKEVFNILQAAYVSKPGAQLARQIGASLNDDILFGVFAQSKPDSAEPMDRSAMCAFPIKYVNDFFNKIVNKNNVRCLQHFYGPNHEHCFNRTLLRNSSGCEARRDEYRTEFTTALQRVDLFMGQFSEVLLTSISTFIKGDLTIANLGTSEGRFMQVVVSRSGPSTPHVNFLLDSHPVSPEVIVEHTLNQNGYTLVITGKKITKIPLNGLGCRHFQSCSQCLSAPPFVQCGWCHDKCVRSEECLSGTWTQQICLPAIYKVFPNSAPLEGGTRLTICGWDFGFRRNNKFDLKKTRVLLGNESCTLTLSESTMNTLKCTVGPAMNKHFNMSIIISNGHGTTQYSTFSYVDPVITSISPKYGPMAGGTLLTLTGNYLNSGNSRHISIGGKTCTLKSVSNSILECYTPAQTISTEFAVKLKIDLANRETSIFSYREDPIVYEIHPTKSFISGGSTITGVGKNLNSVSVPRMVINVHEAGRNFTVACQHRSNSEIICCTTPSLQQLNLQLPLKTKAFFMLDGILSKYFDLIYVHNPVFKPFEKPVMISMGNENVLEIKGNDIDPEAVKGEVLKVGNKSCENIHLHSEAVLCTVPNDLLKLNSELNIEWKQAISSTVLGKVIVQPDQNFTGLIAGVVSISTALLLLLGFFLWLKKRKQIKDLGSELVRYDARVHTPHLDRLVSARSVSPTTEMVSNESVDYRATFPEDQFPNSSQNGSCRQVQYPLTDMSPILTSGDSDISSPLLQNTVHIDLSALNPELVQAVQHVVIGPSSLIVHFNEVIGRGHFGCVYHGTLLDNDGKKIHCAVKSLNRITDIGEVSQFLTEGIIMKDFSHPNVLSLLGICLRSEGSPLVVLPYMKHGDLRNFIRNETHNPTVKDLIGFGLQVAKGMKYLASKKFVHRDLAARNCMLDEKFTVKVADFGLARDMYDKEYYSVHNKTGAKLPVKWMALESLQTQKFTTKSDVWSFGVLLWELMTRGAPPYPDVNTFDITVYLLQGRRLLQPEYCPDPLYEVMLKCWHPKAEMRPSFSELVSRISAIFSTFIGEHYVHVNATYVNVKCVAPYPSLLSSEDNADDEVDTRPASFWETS
How it was run: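 Serum-starved (3 h) PC-3 cells were treated 1 h with compounds (8-point curve, 0.3% DMSO), then stimulated with 100 ng/mL human HGF for 10 min. Lysate phospho-Met (panTyr) was measured by sandwich ELISA, normalised to DMSO and reference-inhibitor controls. IC50 came from 4-parameter logistic fit.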

[4] = target: AXL (phospho-AXL, Gas6-stimulated A-172 glioblastoma cells) (Homo sapiens (Human), UniProt P30530); test: AXL autophosphorylation ELISA in A-172 cells (Example E)
AXL (phospho-AXL, Gas6-stimulated A-172 glioblastoma cells), sequence (P30530 26-894): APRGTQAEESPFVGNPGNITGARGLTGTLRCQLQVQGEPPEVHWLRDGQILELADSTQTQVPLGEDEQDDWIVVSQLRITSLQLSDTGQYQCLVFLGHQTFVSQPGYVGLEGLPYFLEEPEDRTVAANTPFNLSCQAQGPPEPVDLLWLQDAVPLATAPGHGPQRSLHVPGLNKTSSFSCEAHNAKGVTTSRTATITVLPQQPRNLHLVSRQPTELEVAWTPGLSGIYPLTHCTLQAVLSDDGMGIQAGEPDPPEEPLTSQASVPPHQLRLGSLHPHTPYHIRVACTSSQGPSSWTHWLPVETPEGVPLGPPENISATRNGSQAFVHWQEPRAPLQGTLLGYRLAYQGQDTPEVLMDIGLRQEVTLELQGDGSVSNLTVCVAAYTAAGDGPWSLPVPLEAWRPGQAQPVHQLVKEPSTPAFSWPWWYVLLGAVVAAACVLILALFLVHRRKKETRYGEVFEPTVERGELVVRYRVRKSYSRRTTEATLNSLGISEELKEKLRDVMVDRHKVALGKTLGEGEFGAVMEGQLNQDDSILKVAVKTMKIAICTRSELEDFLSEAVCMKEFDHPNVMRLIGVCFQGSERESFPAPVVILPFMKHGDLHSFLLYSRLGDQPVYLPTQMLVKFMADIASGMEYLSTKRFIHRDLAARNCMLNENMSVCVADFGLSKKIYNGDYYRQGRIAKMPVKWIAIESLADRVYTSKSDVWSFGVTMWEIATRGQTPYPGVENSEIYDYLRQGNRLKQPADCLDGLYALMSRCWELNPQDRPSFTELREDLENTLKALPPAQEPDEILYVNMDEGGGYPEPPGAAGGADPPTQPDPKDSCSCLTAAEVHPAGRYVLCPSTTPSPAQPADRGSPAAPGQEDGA
How it was run: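 Phospho-AXL in lysates was quantified by ELISA, normalised to DMSO (100%) and reference inhibitor (0%) controls. IC50 by 4-parameter logistic fit.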

[5] = cellular activity, AXL autophosphorylation ELISA in A-172 cells, read-out: Axl IC50

KDR (phospho-KDR, VEGF165-stimulated HUVEC cells), sequence (P35968 20-1356): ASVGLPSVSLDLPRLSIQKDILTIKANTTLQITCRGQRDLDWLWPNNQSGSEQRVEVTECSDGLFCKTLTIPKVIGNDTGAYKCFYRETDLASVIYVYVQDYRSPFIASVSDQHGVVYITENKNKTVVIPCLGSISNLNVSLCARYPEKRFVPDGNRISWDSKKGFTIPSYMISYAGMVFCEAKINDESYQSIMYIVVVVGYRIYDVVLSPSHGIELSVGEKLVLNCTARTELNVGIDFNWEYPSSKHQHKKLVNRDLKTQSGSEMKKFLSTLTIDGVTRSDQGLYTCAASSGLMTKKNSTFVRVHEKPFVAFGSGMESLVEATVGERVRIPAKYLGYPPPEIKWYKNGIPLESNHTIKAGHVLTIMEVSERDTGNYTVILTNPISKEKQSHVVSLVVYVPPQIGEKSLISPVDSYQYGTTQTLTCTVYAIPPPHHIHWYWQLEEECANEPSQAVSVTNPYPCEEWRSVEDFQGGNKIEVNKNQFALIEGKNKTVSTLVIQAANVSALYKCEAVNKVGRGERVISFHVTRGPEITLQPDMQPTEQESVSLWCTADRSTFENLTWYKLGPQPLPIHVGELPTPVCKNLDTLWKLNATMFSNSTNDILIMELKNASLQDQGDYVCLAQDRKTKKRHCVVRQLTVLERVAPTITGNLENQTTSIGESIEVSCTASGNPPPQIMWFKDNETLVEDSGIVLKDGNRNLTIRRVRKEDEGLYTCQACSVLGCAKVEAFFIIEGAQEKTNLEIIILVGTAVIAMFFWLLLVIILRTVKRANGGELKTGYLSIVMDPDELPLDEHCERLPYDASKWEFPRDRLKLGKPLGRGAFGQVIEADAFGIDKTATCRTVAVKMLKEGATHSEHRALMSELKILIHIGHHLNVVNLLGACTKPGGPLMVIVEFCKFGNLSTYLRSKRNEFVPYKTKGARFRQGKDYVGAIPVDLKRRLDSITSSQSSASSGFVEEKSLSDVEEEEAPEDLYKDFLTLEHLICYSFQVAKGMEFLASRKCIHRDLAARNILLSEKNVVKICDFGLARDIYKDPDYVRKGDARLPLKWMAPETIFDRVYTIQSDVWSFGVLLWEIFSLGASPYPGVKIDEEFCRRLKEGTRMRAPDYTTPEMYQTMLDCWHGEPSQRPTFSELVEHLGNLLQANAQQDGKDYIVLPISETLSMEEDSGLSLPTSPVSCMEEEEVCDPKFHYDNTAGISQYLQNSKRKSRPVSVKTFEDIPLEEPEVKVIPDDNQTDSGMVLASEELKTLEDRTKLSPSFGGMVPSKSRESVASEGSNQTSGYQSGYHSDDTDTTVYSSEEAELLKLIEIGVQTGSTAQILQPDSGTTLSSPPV

Row | Compound | IC50 [1] [µM] | IC50 [2] [µM] | IC50 [3] [µM] | IC50 [4, 5] [µM] | IC50 [4] [µM]
1 | COc1cc2nccc(Oc3ccc(NC(=O)c4c(C)nc(C)c(-c5ccc(F)cc5C)c4O)cc3)c2nc1Cl [Compound 735, N-[4-[(6-chloro-7-methoxy-1,5-naphthyridin-4-yl)oxy]phenyl]-5-(4-fluoro-2-methylphenyl)-4-hydroxy-2,6-dimethylpyridine-3-carboxamide] | < 0.1 | < 0.1 | < 0.1 | < 0.1 | 
2 | COc1cc2nccc(Oc3ccc(NC(=O)c4cnc(C)c(-c5ccc(F)cc5F)c4O)cc3F)c2nc1OC [Compound 395, 5-(2,4-difluorophenyl)-N-[4-[(6,7-dimethoxy-1,5-naphthyridin-4-yl)oxy]-3-fluorophenyl]-4-hydroxy-6-methylpyridine-3-carboxamide] | < 0.1 | < 0.1 | < 0.1 | < 0.1 | 
3 | CCOCc1nc(C)c(-c2ccc(F)cc2C)c(O)c1C(=O)Nc1ccc(Oc2ccnc3cc(OC)cnc23)c(F)c1 [Compound 667, 2-(ethoxymethyl)-N-[3-fluoro-4-[(7-methoxy-1,5-naphthyridin-4-yl)oxy]phenyl]-5-(4-fluoro-2-methylphenyl)-4-hydroxy-6-methylpyridine-3-carboxamide] | > 0.3 | < 0.1 | < 0.1 | < 0.1 | 
4 | COc1cnc2c(Oc3ccc(NC(=O)c4c(C)nc(C)c(-c5ccc(F)c(C)c5)c4O)cc3F)ccnc2c1 [Compound 689, N-[3-fluoro-4-[(7-methoxy-1,5-naphthyridin-4-yl)oxy]phenyl]-5-(4-fluoro-3-methylphenyl)-4-hydroxy-2,6-dimethylpyridine-3-carboxamide] | < 0.1 | < 0.1 | < 0.1 | < 0.1 | 
5 | COc1cc2nccc(Oc3ccc(NC(=O)c4cnc(C5CC5)c(-c5ccc(F)cc5)c4O)cc3F)c2nc1OC [Compound 662, 6-cyclopropyl-N-[4-[(6,7-dimethoxy-1,5-naphthyridin-4-yl)oxy]-3-fluorophenyl]-5-(4-fluorophenyl)-4-hydroxypyridine-3-carboxamide] | 0.1 to 0.3 | < 0.1 | < 0.1 | < 0.1 | 
6 | COCc1cnn(-c2ccc(F)cc2)c(=O)c1C(=O)Nc1ccc(Oc2ccnc3cc(OC)cnc23)c(F)c1 [Compound 532, N-[3-fluoro-4-[(7-methoxy-1,5-naphthyridin-4-yl)oxy]phenyl]-2-(4-fluorophenyl)-5-(methoxymethyl)-3-oxopyridazine-4-carboxamide] | > 0.3 | < 0.1 | < 0.1 | < 0.1 | 
7 | COc1cc2nccc(Oc3ccc(NC(=O)c4nnc(C)c(-c5ccc(F)cc5C)c4OC)cc3F)c2nc1OC [Compound 489, N-[4-[(6,7-dimethoxy-1,5-naphthyridin-4-yl)oxy]-3-fluorophenyl]-5-(4-fluoro-2-methylphenyl)-4-methoxy-6-methylpyridazine-3-carboxamide] | < 0.1 | < 0.1 | < 0.1 | < 0.1 | 
8 | C=C(C)c1cnc2c(Oc3ccc(NC(=O)c4n[nH]c(C)c(-c5ccc(F)cc5)c4=O)cc3F)ccnc2c1 [Compound 464, 5-(4-fluorophenyl)-N-[3-fluoro-4-[(7-prop-1-en-2-yl-1,5-naphthyridin-4-yl)oxy]phenyl]-6-methyl-4-oxo-1H-pyridazine-3-carboxamide] | < 0.1 | < 0.1 | < 0.1 | < 0.1 | 
9 | CCOc1nc2c(Oc3ccc(NC(=O)c4c(C)nc(C)c(-c5ccc(F)cc5C)c4O)cc3)ccnc2cc1OC [Compound 674, N-[4-[(6-ethoxy-7-methoxy-1,5-naphthyridin-4-yl)oxy]phenyl]-5-(4-fluoro-2-methylphenyl)-4-hydroxy-2,6-dimethylpyridine-3-carboxamide] | < 0.1 | < 0.1 | < 0.1 | < 0.1 | 
10 | COc1cc2nccc(Oc3ccc(NC(=O)c4c(C)n(CC(F)F)cc(-c5ccc(F)cc5)c4=O)cc3F)c2nc1OC [Compound 702, 1-(2,2-difluoroethyl)-N-[4-[(6,7-dimethoxy-1,5-naphthyridin-4-yl)oxy]-3-fluorophenyl]-5-(4-fluorophenyl)-2-methyl-4-oxopyridine-3-carboxamide] | 0.1 to 0.3 | < 0.1 | < 0.1 | < 0.1 | 
11 | COCc1nc(C)c(-c2ccc(F)cc2)c(O)c1C(=O)Nc1ccc(Oc2ccnc3cc(C)c(OC)nc23)c(F)c1 [Compound 469, N-[3-fluoro-4-[(6-methoxy-7-methyl-1,5-naphthyridin-4-yl)oxy]phenyl]-5-(4-fluorophenyl)-4-hydroxy-2-(methoxymethyl)-6-methylpyridine-3-carboxamide] | < 0.1 | < 0.1 | < 0.1 | < 0.1 | 
12 | COCc1nc(C)c(-c2ccc(F)cc2)c(O)c1C(=O)Nc1ccc(Oc2ccnc3cnc(Cl)cc23)c(F)c1 [Compound 502, N-[4-[(6-Chloro-1,7-naphthyridin-4-yl)oxy]-3-fluorophenyl]-5-(4-fluorophenyl)-4-hydroxy-2-(methoxymethyl)-6-methylpyridine-3-carboxamide] | < 0.1 | < 0.1 | < 0.1 | < 0.1 | 
13 | COc1cc2nccc(Oc3ccc(NC(=O)c4c(C)n(C)nc(-c5ccc(F)cc5C)c4=O)cc3F)c2nc1OC [Compound 750, N-[4-[(6,7-dimethoxy-1,5-naphthyridin-4-yl)oxy]-3-fluorophenyl]-6-(4-fluoro-2-methylphenyl)-2,3-dimethyl-5-oxopyridazine-4-carboxamide] | 0.1 to 0.3 | < 0.1 | < 0.1 |  | < 0.1
14 | COc1cnc2c(Oc3cc(F)c(NC(=O)c4c(C)nc(C)c(-c5ccc(F)cc5C)c4O)cc3Cl)ccnc2c1 [Compound 770, N-[5-chloro-2-fluoro-4-[(7-methoxy-1,5-naphthyridin-4-yl)oxy]phenyl]-5-(4-fluoro-2-methylphenyl)-4-hydroxy-2,6-dimethylpyridine-3-carboxamide] | < 0.1 | < 0.1 | < 0.1 | < 0.1 | 
15 | COCCOc1cc2ncnc(Oc3ccc(NC(=O)c4ccc(C)n(-c5ccc(F)cc5)c4=O)cc3F)c2nc1OC [Compound 638, N-[3-fluoro-4-[6-methoxy-7-(2-methoxyethoxy)pyrido[3,2-d]pyrimidin-4-yl]oxyphenyl]-1-(4-fluorophenyl)-6-methyl-2-oxopyridine-3-carboxamide] | < 0.1 | < 0.1 | < 0.1 | < 0.1 | 
16 | C=C(C)c1cnc2c(Oc3ccc(NC(=O)c4cnc(C)n(-c5ccc(F)cc5)c4=O)cc3F)ccnc2c1 [Compound 465, 1-(4-fluorophenyl)-N-[3-fluoro-4-[(7-prop-1-en-2-yl-1,5-naphthyridin-4-yl)oxy]phenyl]-2-methyl-6-oxopyrimidine-5-carboxamide] | 0.1 to 0.3 | < 0.1 | < 0.1 | < 0.1 | 
17 | COc1cc2nccc(Oc3ccc(NC(=O)c4cn(C(C)(C)CO)cc(-c5ccc(F)cc5)c4=O)cc3F)c2nc1OC [Compound 56, N-[4-[(6,7-Dimethoxy-1,5-naphthyridin-4-yl)oxy]-3-fluorophenyl]-5-(4-fluorophenyl)-1-(1-hydroxy-2-methylpropan-2-yl)-4-oxopyridine-3-carboxamide] | > 0.3 | < 0.1 | < 0.1 | < 0.1 | 
18 | COc1cc2nccc(Oc3cc(F)c(NC(=O)c4c(C)n(C)c(C)c(-c5ccc(F)cc5)c4=O)cc3F)c2nc1OC [Compound 769, N-[4-[(6,7-dimethoxy-1,5-naphthyridin-4-yl)oxy]-2,5-difluorophenyl]-5-(4-fluorophenyl)-1,2,6-trimethyl-4-oxopyridine-3-carboxamide] | 0.1 to 0.3 | < 0.1 | < 0.1 | < 0.1 | 
19 | COc1cc2nccc(Oc3cc(F)c(NC(=O)c4cn(C)c(C)c(-c5ccc(F)cc5)c4=O)cc3C)c2nc1OC [Compound 746, N-[4-[(6,7-dimethoxy-1,5-naphthyridin-4-yl)oxy]-2-fluoro-5-methylphenyl]-5-(4-fluorophenyl)-1,6-dimethyl-4-oxopyridine-3-carboxamide] | > 0.3 | < 0.1 | < 0.1 | < 0.1 | 
20 | COc1cc2nccc(Oc3ccc(NC(=O)c4c(C)c(C)cn(-c5ccc(F)cc5)c4=O)cc3)c2nc1OC [Compound 680, N-[4-[(6,7-dimethoxy-1,5-naphthyridin-4-yl)oxy]phenyl]-1-(4-fluorophenyl)-4,5-dimethyl-2-oxopyridine-3-carboxamide] | < 0.1 | < 0.1 | < 0.1 | < 0.1 | 
